Like-named read-outs stand apart in the source and are kept apart here.
How the values were obtained:
[1] = Plasma concentration of Compound 54 after intratracheal administration (HPLC); assay type: in vivo, Sprague-Dawley rats; conditions: Sprague-Dawley, rat, other: intratracheal (into the trachea via intubation), 2 mg per rat, 0.2 mL of 10 mg/mL solution in saline
Procedure: (§1) A 10 mg/mL solution of Compound 54 in saline was prepared and 0.2 mL of this solution was administered into the trachea of two Sprague-Dawley rats via intubation. Blood samples were taken at 10 minutes, 30 minutes, 60 minutes and 120 minutes, post-intubation. The plasma concentration of Compound 54 was measured at each of these time points using HPLC and the peak area of the amount of Compound X in the plasma was measured at each of these time points using LC/MS.

[2] = Peak area of Compound X in plasma after intratracheal administration of Compound 54 (LC/MS); assay type: in vivo, Sprague-Dawley rats
Procedure: as §1
The peak area of Compound X correlates with the plasma concentration of this compound.

Structure (SMILES): CNC(=O)[C@H]1O[C@@H](n2cnc3c(NC)nc(C#N)nc32)[C@@H]2OP(=O)(O)O[C@@H]21 [Compound 54]
- concentration at 10 min ([1]; Rat 1, 10 min post-intubation, read-out: Plasma Concentration Rat 1): 830 ng/mL
- concentration at 30 min ([1]; Rat 1, 30 min post-intubation, read-out: Plasma Concentration Rat 1): 232 ng/mL
- concentration at 60 min ([1]; Rat 1, 60 min post-intubation, read-out: Plasma Concentration Rat 1): 69.3 ng/mL
- concentration at 120 min ([1]; Rat 1, 120 min post-intubation, read-out: Plasma Concentration Rat 1): 9.7 ng/mL
- concentration at 10 min ([1]; mean of two rats, 10 min post-intubation, read-out: Mean Plasma Concentration): 728 ng/mL
- concentration at 30 min ([1]; mean of two rats, 30 min post-intubation, read-out: Mean Plasma Concentration): 217 ng/mL
- concentration at 60 min ([1]; mean of two rats, 60 min post-intubation, read-out: Mean Plasma Concentration): 47.6 ng/mL
- concentration at 120 min ([1]; mean of two rats, 120 min post-intubation, read-out: Mean Plasma Concentration): 9.6 ng/mL
- concentration at 10 min ([1]; second rat column (head printed Rat 1), 10 min post-intubation, read-out: Plasma Concentration Rat 1): 627 ng/mL
- concentration at 30 min ([1]; second rat column (head printed Rat 1), 30 min post-intubation, read-out: Plasma Concentration Rat 1): 202 ng/mL
- concentration at 60 min ([1]; second rat column (head printed Rat 1), 60 min post-intubation, read-out: Plasma Concentration Rat 1): 26 ng/mL
- concentration at 120 min ([1]; second rat column (head printed Rat 1), 120 min post-intubation, read-out: Plasma Concentration Rat 1): 9.5 ng/mL

Structure (SMILES): CNC(=O)[C@H]1O[C@@H](n2cnc3c(NC)nc(C#N)nc32)[C@H](O)[C@@H]1O [Compound X]
- Mean Peak Area ([2]; 120 min after intratracheal administration of Compound 54, Rat 2 value not available): 0.4
- Peak Area Rat 1 ([2]; Rat 1, 10 min after intratracheal administration of Compound 54): 140
- Peak Area Rat 1 ([2]; Rat 1, 30 min after intratracheal administration of Compound 54): 9.6
- Peak Area Rat 1 ([2]; Rat 1, 60 min after intratracheal administration of Compound 54): 4.4
- Peak Area Rat 1 ([2]; Rat 1, 120 min after intratracheal administration of Compound 54): 0.4
- Peak Area Rat 2 ([2]; Rat 2, 10 min after intratracheal administration of Compound 54): 64
- Peak Area Rat 2 ([2]; Rat 2, 30 min after intratracheal administration of Compound 54): 12
- Peak Area Rat 2 ([2]; Rat 2, 60 min after intratracheal administration of Compound 54): 1.8
- Mean Peak Area ([2]; mean of rats, 10 min after intratracheal administration of Compound 54): 102
- Mean Peak Area ([2]; mean of rats, 30 min after intratracheal administration of Compound 54): 10.8
- Mean Peak Area ([2]; mean of rats, 60 min after intratracheal administration of Compound 54): 3.1

— patent publication US20070238694A1, “Purine compounds and methods of use thereof” (Inotek Pharmaceuticals Corporation, priority 2006, published 2007)
